# From BindingDB's records for doi:10.1021/jm300576q (Georgetown University Medical Center, 2012)
# pIC50: −log10 of the molar value.
# Assay: Inhibition of VEGFR2-mediated angiogenesis in human HUVEC cells after 24 hrs by inverted photomicroscopic analysis
smiles,measurement,value
COC(=O)Nc1nc2ccc(C(=O)c3ccccc3)cc2[nH]1 [methyl (5-benzoyl-1H-benzimidazol-2-yl)carbamate],pIC50,5.06
